Test results: the METLIN SMRT retention time set (Domingo-Almenara et al. 2019)

Assay: gradient 5% acetonitrile 3 min, to 50% in 2 min, to 85% in 15 min, held 3 min, 100 µL/min
Conditions: column: Zorbax Extend-C18 2.1 x 50 mm; eluents: water / acetonitrile, 0.1% formic acid
Summary of the method: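 In both positive and negative ionization mode, a quadrupole time-of-flight mass spectrometer coupled to HPLC analyzed pure standards run in mixtures of ~100 molecules. The Zorbax Extend-C18 column (2.1 × 50 mm, 1.8 μm) was operated at 100 μL/min with water and acetonitrile, each containing 0.1% formic acid. The dead volume was 40 μL and the dwell volume 900 μL. Retention time came from adduct peaks that were computationally picked and individually inspected by hand.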

| SMILES | RP-LC retention time |
| --- | --- |
| CS(=O)(=O)N1CC(n2cc(C(=O)N3CCOCC3)nn2)C1 | 573 s |
| O=c1n(Cc2cccc(C(F)(F)F)c2)nc2ccc(-c3ccccc3)nn12 | 887 s |
| COc1cc2c(cc1OC)C(=O)C(CC1CCN(Cc3ccccc3)CC1)C2 (stereo unspecified) | 690 s |
| Cc1onc(C(=O)N2CCc3c(c(-c4nncn4C)nn3C)C2)c1Cn1cc(Cl)cn1 | 649 s |
| CC(=O)N(C1CCOCC1)C1CCN(C(=O)Nc2cc(F)c(F)c(F)c2)CC1 | 747 s |
| CNC(=O)c1cnn2c3c(cnc12)CCCCCC3 | 831 s |
| COCc1noc(C2CCCCN2CC(=O)Nc2nccs2)n1 (stereo unspecified) | 720 s |
| Cc1ccc2c(C)nc(NC3=NCN(CC4CCCO4)CN3)nc2c1 (stereo unspecified) | 660 s |
| COc1ccc(N2CCN(c3nccc4ccc(C(=O)NC5CCCC5)cc34)CC2)cc1 | 734 s |
| Cc1cc(C)n(Cc2nc(-c3ccc(NC(=O)c4ccc(C)s4)cc3)oc2C)n1 | 955 s |
| Cn1nc(CO)c2c1CCN(C(=O)c1cc(-c3cccs3)[nH]n1)C2 | 602 s |
| O=C(Nc1ccccc1)C1CCCN(S(=O)(=O)Cc2ccccc2Cl)C1 (stereo unspecified) | 976 s |
| O=C1CC(c2nc(-c3cccc(Cl)c3)no2)CN1c1ccc(F)cc1 (stereo unspecified) | 1030 s |
| COc1cc(OC)cc(-c2nnc(Cc3nc(-c4cccc(F)c4)no3)o2)c1 | 907 s |
| CNC(=O)C1CCCN(c2nc3ncn(CC(=O)Nc4ccc(F)cc4F)c(=O)c3s2)C1 (stereo unspecified) | 635 s |
| Cc1ccn2cc(C(=O)N3CCN(c4ccccc4Cl)CC3)nc2c1 | 722 s |
| O=C(c1cc(=O)c(OCc2ccc(F)cc2)co1)N1CCN(c2ncccn2)CC1 | 696 s |
| COc1ccc(-c2nnc(-c3cc(S(N)(=O)=O)ccc3Cl)o2)cc1 | 792 s |
| CC(O)(CS(=O)(=O)c1ccc(F)cc1)C(=O)Nc1ccc(C#N)c(C(F)(F)F)c1 (stereo unspecified) | 992 s |
| CSc1ccc(NC(=O)c2cn3c(n2)CSCC3)cc1 | 727 s |
| Cc1oc(-c2ccc(Cl)cc2)nc1CN1CCCC(C(=O)NC2CCCCCC2)C1 (stereo unspecified) | 810 s |
| COc1cc(C(=O)N2CCC3(CC2)Nc2cc(F)ccc2-n2cccc23)cc(OC)c1OC | 868 s |
| Cn1nccc1-c1cccc(-c2noc(Cc3ccc(Cl)cc3)n2)c1 | 1130 s |

| SMILES | RP-LC retention time |
| --- | --- |
| O=C(c1nccc2ccccc12)N1CCc2cc(-c3ccno3)ccc21 | 1000 s |
| CCC(C)NC(=O)C1CC(=O)N(c2ccc3c(c2)CCN3C(C)=O)C1 (stereo unspecified) | 630 s |
| CCS(=O)(=O)N1CCCc2cc(C(=O)NC(C)(C)C)ccc21 | 826 s |
| CC(C)c1ccc(NC(=O)C2CC(=O)N(c3cccc(NC(=O)C4CCC4)c3)C2)cc1 (stereo unspecified) | 929 s |
| O=C(NCc1ccc(F)cc1F)c1nnn2c1COC(c1ccc(Cl)cc1)C2 (stereo unspecified) | 1040 s |
| CCN1CCN(CCNC(=O)C2CCCN(C(=O)c3[nH]c(C)c(C(=O)OC(C)C)c3C)C2)CC1 (stereo unspecified) | 596 s |
| CC(=O)N1CCc2cc(N3CC(C(=O)Nc4cccc(F)c4)CC3=O)ccc21 (stereo unspecified) | 710 s |
| CCc1nnc([C@@H]2CC(F)(F)CN2C(=O)CCn2cccn2)o1 | 639 s |
| Cc1nc2cc(-c3noc(-c4ccc(Br)o4)n3)ccc2o1 | 1090 s |
| CCOC(=O)c1c(C)c(CCC(=O)NCCN2CCN(C)CC2)n(C)c1C | 596 s |
| COc1nccnc1NC1CCN(C(=O)c2cccnc2)CC1 | 692 s |
| CCc1onc(C)c1C1CCCN1C(=O)Nc1cccc(F)c1 (stereo unspecified) | 832 s |
| CC1CN(C(=O)c2cc3cc([N+](=O)[O-])ccc3s2)CC(C)O1 (stereo unspecified) | 780 s |
| Cn1nc(CNC(=O)c2ccc(Br)o2)c2ccccc21 | 795 s |
| CC(C(=O)NC1CCSC1=O)n1nc(-n2cccn2)ccc1=O (stereo unspecified) | 616 s |
| CC1=C(C(=O)Nc2ccc(C(=O)N3CCN(c4ccc(Cl)cc4)CC3)cc2)SCCO1 | 957 s |
| O=C(NC1CCCCC1)c1cccn1Cc1noc(-c2ccccc2)n1 | 1070 s |
| CCc1nc2sc(C(C)C)nn2c1S(=O)(=O)NC1CCCCC1 | 1020 s |
| c1ccc(-c2nc(-c3ccc(OC4CNC4)cc3)no2)cc1 | 686 s |
| COc1cc(C(=O)Nc2nc(-c3ccc(C)cc3)c(C)s2)c(Br)c(OC)c1OC | 1190 s |
| O=C(NCCc1csc(-c2ccccc2)n1)C1CCN(S(=O)(=O)c2cccc(F)c2)CC1 | 922 s |
| Cn1nc(C(=O)N2CCCC2)c2c1CCN(C(=O)Nc1ccccc1Br)C2 | 737 s |

Further lines, results first:

| RP-LC retention time | SMILES |
| --- | --- |
| 637 s | COc1ccc(NC(=O)CN2CCc3[nH]c4c(F)c(Cl)ccc4c(=O)c3C2)c(OC)c1 |
| 672 s | COc1ccccc1-c1nc2cnccn2c1NCCC(=O)Nc1ccc2c(c1)OCCO2 |
| 904 s | CN(C)S(=O)(=O)c1ccc(CNC(=O)c2cccc(-c3nnc(-c4ccccc4)o3)c2)s1 |
| 808 s | CCOCCCNC(=O)C1(C)Cn2c(ccc2-c2ccco2)C(=O)N1c1ccc(F)cc1 (stereo unspecified) |
| 822 s | CCc1noc(NC(C)=O)c1-c1ccc(C)c(S(=O)(=O)Nc2ccc(F)cc2)c1 |
| 943 s | CCOc1ccccc1NC(=O)Cn1c(=O)n(-c2cccc(C)c2)c(=O)c2c1cc(C)n2C |
| 895 s | NC(=O)c1ccccc1OCC(=O)Nc1ccc(Cl)c(Cl)c1 |
| 842 s | Cc1ccc(NC(=O)Cn2c(-c3cnccn3)nc(C)c(C)c2=O)cc1Cl |
| 1280 s | Cc1ccc(C)c(-c2coc(-c3ccc(NC(=O)C(C)(C)C)cc3)n2)c1 |
| 929 s | COc1ccc(OC)c(-c2cn3ccn(-c4ccc(F)c(Cl)c4)c(=O)c3n2)c1 |
| 716 s | Cc1ccc(-c2nc3ccccn3c2NC(=O)Nc2cccc(C)c2)cc1 |
| 822 s | CCOc1ccc2c(c1)SC(CC(=O)Nc1ccccc1[N+](=O)[O-])C(=O)N2 (stereo unspecified) |
| 570 s | Cc1ccc2cc(CCC(=O)NCc3ccncc3)c(=O)[nH]c2c1 |
| 1120 s | Cc1ccsc1C(=O)Nc1ccccc1Sc1c(C)c(C)nc2nc(-c3ccccc3)nn12 |
| 844 s | COc1ccccc1-n1ccn2cc(-c3ccc(F)cc3F)nc2c1=O |
| 738 s | CCN(CC)S(=O)(=O)c1ccc(C(=O)Nc2nc3c(s2)CCc2ccccc2-3)cc1 |
| 728 s | CC(=O)N1CCc2cc(N3CC(C(=O)Nc4ccccc4C(C)C)CC3=O)ccc21 (stereo unspecified) |
| 684 s | CCOc1ccccc1C(=O)NCc1nc(C)no1 |
| 765 s | Cn1c(=O)c2cc(C(=O)NCCCc3ccccc3)sc2n(C)c1=O |
| 849 s | CCOC(=O)C1=C(C)NC2=C(C(=O)C(C(=O)OC)C(C)C2)C1c1ccccc1OC (stereo unspecified) |
| 1110 s | Cc1cc(C)cc(NC(=O)Nc2nccn(-c3cccc(Cl)c3)c2=O)c1 |
